Laboratory results published in PubChem BioAssay AID248 (DTP/NCI, 2004).
Where “and” joins values, the source holds several entries; their conditions need not be identical. Equal entries are not always repeated. Toxic doses and inconclusive results are not listed.

System: L1210 leukemia ip in BDF1 mice, survival T/C
Assay: NCI In Vivo Anticancer Drug Screen. Data for tumor model L1210 Leukemia (intraperitoneal) in B6D2F1 (BDF1) mice
Conditions: endpoint: mean survival time, higher = longer survival
In short: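 Ratio derived from survival: compound-dosed mice over vehicle-dosed mice, all bearing a transplantable tumor.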

[1] = dose: 100.0 mg/kg/injection, schedule: Q04DX003 (ip), vehicle: Klucel (hydroxypropylcellulose) (HPC)
[2] = dose: 200.0 mg/kg/injection, schedule: Q04DX003 (ip), vehicle: Klucel (hydroxypropylcellulose) (HPC)
[3] = dose: 100.0 mg/kg/injection, schedule: Q01DX009 (ip), vehicle: Klucel (hydroxypropylcellulose) (HPC)

## Cc1cc(N(CCOS(C)(=O)=O)CCOS(C)(=O)=O)ccc1C=Nc1ccc(-c2csc(-c3ccc(Br)cc3)n2)cc1
dose: 100.0 mg/kg/injection, schedule: Q01DX009 (ip), vehicle: saline
  T/C: 109 % of control
[1]
  T/C: 150 % of control
dose: 150.0 mg/kg/injection, schedule: Q01DX009 (ip), vehicle: saline
  T/C: 101 % of control
[2]
  T/C: 91 % of control

## COc1ccc(CC(N)C(=O)O)cc1N(CCCl)CCCl (centres undefined)
dose: 0.07 mg/kg/injection, schedule: Q01DX009 (ip), vehicle: carboxymethylcellulose (CMC)
  T/C: 116 % of control
dose: 0.08 mg/kg/injection, schedule: Q01DX009 (ip), vehicle: carboxymethylcellulose (CMC)
  T/C: 117 % of control
dose: 0.4 mg/kg/injection, schedule: Q01DX009 (ip), vehicle: carboxymethylcellulose (CMC)
  T/C: 110 % of control
dose: 0.6 mg/kg/injection, schedule: Q01DX001 (ip), vehicle: carboxymethylcellulose (CMC)
  T/C: 111 % of control and 108 % of control
dose: 1.2 mg/kg/injection, schedule: Q01DX001 (ip), vehicle: carboxymethylcellulose (CMC)
  T/C: 120 % of control and 106 % of control
dose: 1.2 mg/kg/injection, schedule: Q01DX009 (ip), vehicle: carboxymethylcellulose (CMC)
  T/C: 150 % of control
dose: 1.5 mg/kg/injection, schedule: Q01DX009 (ip), vehicle: carboxymethylcellulose (CMC)
  T/C: 151 % of control
dose: 2.0 mg/kg/injection, schedule: Q01DX009 (ip), vehicle: carboxymethylcellulose (CMC)
  T/C: 166 % of control
dose: 2.5 mg/kg/injection, schedule: Q01DX001 (ip), vehicle: carboxymethylcellulose (CMC)
  T/C: 121 % of control and 110 % of control
dose: 2.5 mg/kg/injection, schedule: Q01DX009 (ip), vehicle: carboxymethylcellulose (CMC)
  T/C: 227 % of control
dose: 3.0 mg/kg/injection, schedule: Q01DX009 (ip), vehicle: carboxymethylcellulose (CMC)
  T/C: 183 % of control
dose: 4.5 mg/kg/injection, schedule: Q01DX009 (ip), vehicle: carboxymethylcellulose (CMC)
  T/C: 180 % of control and 213 % of control
dose: 5.0 mg/kg/injection, schedule: Q01DX001 (ip), vehicle: carboxymethylcellulose (CMC)
  T/C: 123 % of control
dose: 5.0 mg/kg/injection, schedule: Q01DX009 (ip), vehicle: carboxymethylcellulose (CMC)
  T/C: 92 % of control
dose: 5.5 mg/kg/injection, schedule: Q01DX001 (ip), vehicle: carboxymethylcellulose (CMC)
  T/C: 151 % of control and 152 % of control
dose: 6.0 mg/kg/injection, schedule: Q01DX009 (ip), vehicle: carboxymethylcellulose (CMC)
  T/C: 98 % of control
dose: 7.0 mg/kg/injection, schedule: Q01DX009 (ip), vehicle: carboxymethylcellulose (CMC)
  T/C: 116 % of control
dose: 11.0 mg/kg/injection, schedule: Q01DX001 (ip), vehicle: carboxymethylcellulose (CMC)
  T/C: 206 % of control
dose: 12.0 mg/kg/injection, schedule: Q01DX009 (ip), vehicle: carboxymethylcellulose (CMC)
  T/C: 93 % of control
dose: 16.5 mg/kg/injection, schedule: Q01DX001 (ip), vehicle: carboxymethylcellulose (CMC)
  T/C: 173 % of control
dose: 25.0 mg/kg/injection, schedule: Q01DX001 (ip), vehicle: carboxymethylcellulose (CMC)
  T/C: 217 % of control

## Cc1ccccc1NC(=O)Nc1cccc(C)c1C
[3]
  T/C: 87 % of control
[1]
  T/C: 98 % of control
dose: 200.0 mg/kg/injection, schedule: Q01DX009 (ip), vehicle: Klucel (hydroxypropylcellulose) (HPC)
  T/C: 95 % of control
[2]
  T/C: 93 % of control
dose: 400.0 mg/kg/injection, schedule: Q04DX003 (ip), vehicle: Klucel (hydroxypropylcellulose) (HPC)
  T/C: 94 % of control

## CC(=O)N(/C=C/C=C/C=C1\C(=O)N(c2ccc(S(=O)(=O)O)cc2)N=C1C)c1ccccc1
dose: 100.0 mg/kg/injection, schedule: Q01DX001 (ip), vehicle: saline
  T/C: 99 % of control
dose: 200.0 mg/kg/injection, schedule: Q01DX001 (ip), vehicle: saline
  T/C: 98 % of control
dose: 400.0 mg/kg/injection, schedule: Q01DX001 (ip), vehicle: saline
  T/C: 88 % of control

## C[N+](C)(C)/N=C1\CCc2ccccc21
dose: 50.0 mg/kg/injection, schedule: Q01DX009 (ip), vehicle: saline with Tween-80
  T/C: 100 % of control
dose: 50.0 mg/kg/injection, schedule: Q04DX003 (ip), vehicle: saline with Tween-80
  T/C: 110 % of control
dose: 100.0 mg/kg/injection, schedule: Q01DX001 (ip), vehicle: saline with Tween-80
  T/C: 97 % of control
dose: 100.0 mg/kg/injection, schedule: Q01DX009 (ip), vehicle: saline with Tween-80
  T/C: 97 % of control
dose: 100.0 mg/kg/injection, schedule: Q04DX003 (ip), vehicle: saline with Tween-80
  T/C: 98 % of control
dose: 200.0 mg/kg/injection, schedule: Q01DX001 (ip), vehicle: saline with Tween-80
  T/C: 100 % of control
dose: 200.0 mg/kg/injection, schedule: Q01DX009 (ip), vehicle: saline with Tween-80
  T/C: 103 % of control
dose: 200.0 mg/kg/injection, schedule: Q04DX003 (ip), vehicle: saline with Tween-80
  T/C: 91 % of control

## Cc1ccc(CNC(=S)NC2CCCCC2)cc1C
dose: 25.0 mg/kg/injection, schedule: Q01DX009 (ip), vehicle: Klucel (hydroxypropylcellulose) (HPC)
  T/C: 97 % of control
dose: 50.0 mg/kg/injection, schedule: Q01DX009 (ip), vehicle: Klucel (hydroxypropylcellulose) (HPC)
  T/C: 93 % of control
[3]
  T/C: 93 % of control
